Compound in the assay “Linsitinib + Decitabine”: C[C@]1(O)C[C@@H](c2nc(-c3ccc4ccc(-c5ccccc5)nc4c3)c3c(N)nccn32)C1 [Linsitinib] + Nc1ncn([C@H]2C[C@H](O)[C@@H](CO)O2)c(=O)n1 [Decitabine] (partner 2 µM)
As to the kind of experiment: relative viability (nuclei count vs DMSO), 5 days (fraction); higher = more cells survive. Summed up: (§1)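 Dosing by pin tool came one day after lung cancer cell lines were seeded in 1536-well plates, using either one drug or a fixed anchor-drug dose plus five library-drug doses (not always all listed) in √10 steps. After 5 days, nuclei were counted on 4× images. Relative viability is treated-well nuclei count divided by vehicle-well nuclei count, and values are medians of duplicate plates.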

Compound in the assay “Ispinesib + Trametinib”: Cc1ccc(C(=O)N(CCCN)[C@@H](c2nc3cc(Cl)ccc3c(=O)n2Cc2ccccc2)C(C)C)cc1 [Ispinesib] + CC(=O)Nc1cccc(-n2c(=O)n(C3CC3)c(=O)c3c(Nc4ccc(I)cc4F)n(C)c(=O)c(C)c32)c1 [Trametinib] (partner 0.02 µM)
The assay is described as above. The essentials: as §1

With NCI-H1755, the relative viability with Linsitinib + Decitabine (first compound 0.01 µM) turned out to be 0.719; in the assay with Linsitinib + Decitabine (first compound 0.03162 µM), 0.856; with Linsitinib + Decitabine (first compound 0.1 µM) it was 0.719; in the assay with Linsitinib + Decitabine (first compound 0.3162 µM), 0.559; in the assay with Linsitinib + Decitabine (first compound 1 µM), 0.702; with Ispinesib + Trametinib (first compound 0.001 µM), 0.843. Besides, the relative viability with Ispinesib + Trametinib (first compound 0.003162 µM) worked out at 0.838; in the assay with Ispinesib + Trametinib (first compound 0.01 µM), 0.751; with Ispinesib + Trametinib (first compound 0.03162 µM) it was 0.713; with Ispinesib + Trametinib (first compound 0.1 µM) it was 0.758.

Take NCI-H2085: the relative viability with Linsitinib + Decitabine (first compound 0.01 µM) is 0.525; with Linsitinib + Decitabine (first compound 0.03162 µM) it was 0.59; in the assay with Linsitinib + Decitabine (first compound 0.1 µM), 0.509; with Linsitinib + Decitabine (first compound 0.3162 µM), 0.528; with Linsitinib + Decitabine (first compound 1 µM), 0.618; with Ispinesib + Trametinib (first compound 0.001 µM), 0.498. The relative viability with Ispinesib + Trametinib (first compound 0.003162 µM) came to 0.563; with Ispinesib + Trametinib (first compound 0.01 µM), 0.58; with Ispinesib + Trametinib (first compound 0.03162 µM), 0.519; with Ispinesib + Trametinib (first compound 0.1 µM), 0.472.

Consider NCI-H2023, for which the relative viability with Linsitinib + Decitabine (first compound 0.01 µM) is 0.213; with Linsitinib + Decitabine (first compound 0.1 µM) it was 0.239; in the assay with Linsitinib + Decitabine (first compound 0.3162 µM), 0.196; with Linsitinib + Decitabine (first compound 1 µM), 0.243; with Ispinesib + Trametinib (first compound 0.001 µM), 0.574; with Ispinesib + Trametinib (first compound 0.003162 µM), 0.606. Further, the relative viability with Ispinesib + Trametinib (first compound 0.01 µM) is 0.551; in the assay with Ispinesib + Trametinib (first compound 0.03162 µM) it was 0.24; in the assay with Ispinesib + Trametinib (first compound 0.1 µM) it was 0.14.

As to HOP-62, the relative viability with Linsitinib + Decitabine (first compound 0.01 µM) came to 0.194; in the assay with Linsitinib + Decitabine (first compound 0.03162 µM) it was 0.241; with Linsitinib + Decitabine (first compound 0.1 µM) it was 0.194; with Linsitinib + Decitabine (first compound 1 µM), 0.201; in the assay with Ispinesib + Trametinib (first compound 0.001 µM) it was 0.349; with Ispinesib + Trametinib (first compound 0.003162 µM), 0.373. Besides, the relative viability with Ispinesib + Trametinib (first compound 0.01 µM) was 0.406; with Ispinesib + Trametinib (first compound 0.03162 µM), 0.441; with Ispinesib + Trametinib (first compound 0.1 µM), 0.42.

The values above are taken from the supplement of paper PMC10307832.
